Measurements reported in PMC3875372 (Biochemistry, 2013).

What was measured:
ecDHFR = conditions: cited from earlier work
[1] = standards; 2-aminopyridine λex 295 nm, anthracene λex 340 nm; cited from earlier work
[2] = test system: modified DHFRs (biphenyl-phenylalanines at position 115); assay: Inhibition of the modified DHFRs; format: biochemical, E. coli; conditions: all four DHFRs modified at position 115

## 4-biphenyl-L-phenylalanine
ecDHFR; replacement of Ile115, in the presence of dihydrofolate
  effect on the rate at which ecDHFR consumed NADPH: no significant effect

## Nc1ccccn1 [2-aminopyridine]
[1]
  ΦF of quantum yield standard: 0.60

## c1ccc2cc3ccccc3cc2c1 [anthracene]
[1]
  ΦF of quantum yield standard: 0.27

## CN(Cc1cnc2nc(N)nc(N)c2n1)c1ccc(C(=O)N[C@@H](CCC(=O)O)C(=O)O)cc1 [methotrexate]
[2]
  inhibition of the modified enzymes compared with wild type: about the same extent as wild type

## L-(7-hydroxycoumarin-4-yl)ethylglycine
ecDHFR; position 115 of ecDHFR
  rate of NADPH consumption relative to wild type: about 25%
